Test: Human HepG2 cell viability assay in 384 well format
Format: toxicity, cell-based
Design: dose 125 nL, time 70.5 hour; cytotoxicity at 70.5 h: concentration not given beside the values
Conditions: HepG2 cells, read-out: Inhibition

| Structure (SMILES) | cytotoxicity at 70.5 h [%] |
| --- | --- |
| Cc1ccc(-c2csc(N)c2C#N)c(C)c1 | -15.8 |
| CN1CCc2onc(Cn3cccc3)c2C1 | -0.902 |
| O=C(NCCc1ccccc1)C1CCCN(c2ccc3nncn3n2)C1 (stereo not drawn) | -9.33 |
| CS(=O)(=O)NCc1cnc2n1CCN(Cc1cccnc1)CC2 | -9.03 |
| CCCS(=O)(=O)NCc1cccnc1OCc1ccccc1 | -7.41 |
| Cc1nc(CN2CCC(c3nc4ccccc4n3C)CC2)co1 | -24.4 |
| CCC1=N[C@@]2(CC[C@@H]3CN(C(=O)Nc4ccccc4)C[C@@H]32)C(=O)N1C | -85.8 |
| O=C(CCc1cscn1)NS(=O)(=O)c1ccc2ccccc2c1 | -5.17 |
| COc1ccc(F)c(CNC2CCCc3nc(N(C)C)ncc32)c1 (stereo not drawn) | -11.5 |
| Cc1c(C(=O)N2CCC2)nnn1-c1ccc2ncccc2c1 | -3.53 |
| O=C(NC1CCS(=O)(=O)C1)N1CCN(c2cnccn2)CC1 (stereo not drawn) | -7.1 |
| OC(CN1CCN(Cc2nc(C3CC3)no2)CC1)c1ccccc1 (stereo not drawn) | 2 |
| Cc1ccc(NC(=O)c2ccc(=O)n(CC(=O)Nc3nccs3)n2)cc1 | 23.1 |
| C1CN(c2nc(C3CC3)no2)CCN(C2CCOCC2)C1 | -0.117 |
| Cn1cc(C(=O)NC[C@@H]2OC[C@H]3CN(Cc4ccco4)CC[C@H]32)cn1 | -7.09 |
| Cc1cc(S(=O)(=O)NCC[S+](C)[O-])c(F)cc1F (stereo not drawn) | -2.05 |
| Cn1nc(C(=O)NC2(c3ccc(Cl)cc3)CCCC2)ccc1=O | 24.7 |
| CNC(=O)CN1CCOCC2(C1)CN(C(=O)C(C)C)CCO2 (stereo not drawn) | -9.58 |
| Cc1cc(O)nc(C2CN(CCO)CCO2)n1 (stereo not drawn) | 8.3 |
| O=C(C1CC1)N1CCc2c(ncnc2NCCc2nc3c(s2)CCC3)C1 | 13.5 |
| O=C(C1CC1)N1Cc2[nH]nc(COCc3cccnc3)c2C1 | -0.809 |
| Fc1ccc(CN2CCC(c3n[nH]c4nccnc34)CC2)cc1F | 7.75 |
| O=C(c1ccc[nH]1)N1CCc2cc(S(=O)(=O)N3CCOCC3)ccc2C1 | 50.8 |

| Structure (SMILES) | cytotoxicity at 70.5 h [%] |
| --- | --- |
| c1cnc(NCC2Cn3nnc(-c4ccsc4)c3CO2)nc1 (stereo not drawn) | -8.81 |
| C[C@H]1CN(C(=O)c2cscn2)C[C@@]12CCN(c1ccsc1)C2=O | -14.4 |
| O=C(c1ccccn1)N1CC[C@H]2C(=O)N(c3ccsc3)CCO[C@H]2C1 | -15.7 |
| Cc1ccc(Oc2c(F)cccc2OC[C@@H](N)CC(C)C)cc1 | 23.8 |
| CCC(=O)N1CCC(c2ncc(C(=O)Nc3ccccc3)c(C)n2)C1 (stereo not drawn) | -3.38 |
| Cn1cc(CCCN2CCN(C(=O)c3cccc(O)c3)CC2)cn1 | -3.56 |
| CN(C)[C@H]1CN(C(=O)CCCc2ccc(F)cc2)C[C@@H]1C1CC1 | -7.35 |
| COc1ccsc1C(=O)Nc1cc(Br)c(=O)n(C)c1 | -4.19 |
| COC(=O)c1ccc(Cl)c(S(=O)(=O)Nc2ccc(F)c(C(N)=O)c2)c1 | -14.5 |
| CCCc1ccc(CN2CCC3(CC2)CNC(=O)C3)o1 | 21.8 |
| CC(C)C(=O)N1Cc2ccccc2CC2(CCCN2C)C1 (stereo not drawn) | -10.9 |
| CCN1CCCC1CN(Cc1ccoc1)CC1CCN(CCOC)CC1 (stereo not drawn) | -3.24 |
| Cc1ccc(C(=O)N2CCC3(CC2)CC(NC(=O)C(C)C)CO3)cc1 (stereo not drawn) | 5.27 |
| O=C(NCCC1CCN(CC(F)(F)F)CC1)C1CCCOC1 (stereo not drawn) | 3.94 |
| CN(C)CC1CSCCCN1C(=O)c1ccsc1 (stereo not drawn) | -6.74 |
| CC(C)C(=O)N1CCCC(c2cc(C(F)F)n3ncnc3n2)C1 (stereo not drawn) | 23.9 |
| O=C(NCC(F)(F)F)C1CCC(=O)N(C2CCCC2)C1 (stereo not drawn) | -3.8 |
| O=C(NC1CC1)N1CCc2ccc(=O)n(Cc3ccncc3)c2CC1 | 12.1 |
| Cc1ccc(CCNC(=O)Cn2nc(C)n(Cc3ccccc3)c2=O)s1 | 3.12 |
| Cc1ccc(-c2cc(CN3CCc4cnc(C)nc4C3)on2)cc1 | -10.1 |
| Cc1ccc2c(c1)OCCCC2NCc1nccn1Cc1ccccc1 (stereo not drawn) | -6.01 |
| N#Cc1ccc(CN2CCCC2Cn2cccn2)c(F)c1 (stereo not drawn) | 4.66 |
| CC(C)(C)c1cc(C[C@H]2CNCC[C@H]2CC(=O)N2CCCCC2)no1 | -1.6 |

| Structure (SMILES) | cytotoxicity at 70.5 h [%] |
| --- | --- |
| Cc1noc(C)c1CN1CC[C@H]2OCC[C@@]2(C(=O)NCC2CC2)C1 | -5.64 |
| CCc1cnc(N2CCN(Cc3ccno3)CC2)s1 | -1.37 |
| Cc1nc(O)cc(CCNc2nc(N(C)C)nc(C)c2C)n1 | 22 |
| COCc1nc(Cn2ncn3cccc3c2=O)no1 | -0.912 |
| Cc1cc(C)n(CC2CN(Cc3cccc(C(N)=O)c3)CCO2)n1 (stereo not drawn) | 6.91 |
| CCOC(=O)NC(CNC(=O)c1cn(C)cn1)CC(C)C (stereo not drawn) | -1.97 |
| Cc1ncc(CNC(=O)N(C)Cc2ccc([S+](C)[O-])cc2)s1 (stereo not drawn) | -4.15 |
| COc1ccc(C[C@H]2CN(C(=O)c3cscn3)CC[C@@H]2OC)cc1 | 49.9 |
| CC(=O)N[C@@H](CC(C)C)C(=O)N1CCC(n2cc(CO)nn2)CC1 | -4.38 |
| CC(C)N(C)Cc1cncc2c1CCN(Cc1ccoc1)C2 | -1.23 |
| CCN1CCCC(O)(CNCc2ccncc2)C1 (stereo not drawn) | 14.1 |
| CN(Cc1cn2c(n1)CN(C(=O)C1CCOCC1)CC2)Cc1ccco1 | -1.65 |
| CC(C)(C)CC(=O)NCCn1nc(C2CCNC2)c2cccnc21 (stereo not drawn) | -6.02 |
| O=C(NCCCN1CCOCC1)c1cc(-c2ccccc2)[nH]n1 | -1.59 |
| Nc1nc2c(c(NC3CCCC3)n1)CCN(C(=O)C1CCOC1)CC2 (stereo not drawn) | 11.4 |
| CC(C)NC(=O)c1nc2c(s1)CCCN2C(C)C | 7.18 |
| CCS(=O)(=O)N1CCCn2c(nc(CN3CCCC3)cc2=O)C1 | -7.43 |
| COc1ccc(NCC(=O)NCC(=O)N2CCCC2)c(C(F)(F)F)c1 | -2.2 |
| CCS(=O)(=O)N1C[C@@H](c2ccccc2)[C@@]2(CCNC2=O)C1 | -4.06 |
| CN(C)CCn1ccc2ccc(NC(=O)c3ccncc3F)cc21 | -6.52 |
| Cc1ccc2nc(C3CCCN(Cc4ccccc4)C3)nc(O)c2c1 (stereo not drawn) | 0.432 |
| O=C(NCC1(c2cccs2)CCCCC1)N1CCOC(CO)C1 (stereo not drawn) | -1.73 |
| Cc1ccc(CNC(=O)N(C)Cc2cnn(C)c2)s1 | -1.07 |

| Structure (SMILES) | cytotoxicity at 70.5 h [%] |
| --- | --- |
| CCOCc1ncn2c1CN(C(=O)Nc1ccccc1CC)CC2 | 16.8 |
| CNS(=O)(=O)c1cccc(C(C)NCc2ccc(F)c(F)c2)c1 (stereo not drawn) | -6.64 |
| NC(=O)Cn1ccnc1C1CCCN(CCSc2ccccc2)C1 (stereo not drawn) | -12.6 |
| CCN1CC(C(=O)N2CCN(c3nsc4ccccc34)CC2)CCC1=O (stereo not drawn) | 19.6 |
| CCOCCOC(C)C(=O)Nc1ccc2ccn(CC(=O)NC)c2c1 (stereo not drawn) | -13.2 |
| CN1CCCC1CNC(=O)CCCOc1ccc(F)cc1 (stereo not drawn) | 0.0711 |
| Cc1cc(C)n(C2CN(CCc3ccncc3)C2)n1 | 42.3 |
| CCc1cnc(CN(C)C2CCN(CCCNS(C)(=O)=O)C2)o1 (stereo not drawn) | -2.35 |
| CCc1cnc(N)nc1NCCN1CCCCC1 | 23 |
| CN(C)C(=O)CN1CCOCC2(CCN(CC3CCOC3)CC2)C1 (stereo not drawn) | 15.1 |
| Cn1nc(C2CCCN(Cc3cc(F)ccc3F)C2)c2nccnc21 (stereo not drawn) | -2.84 |
| Oc1nnc(-c2cccs2)c2sc(N3CCCC3)nc12 | -6.61 |
| CCNc1ccnc(CN2CCCC2C(=O)Nc2nccs2)c1 (stereo not drawn) | 8.54 |
| O=C(Nc1cccnc1)[C@H]1C[C@H]2OCC[C@H]2N(C(=O)c2ccsc2)C1 | -15.4 |
| CCSc1ccc(NC(=O)NC(C)c2ccncc2)cn1 (stereo not drawn) | -5.74 |
| Cc1cnn(CCNCC(O)c2ccc(F)c(F)c2)c1 (stereo not drawn) | 3.17 |
| Cc1ccc2nc(C(=O)N3CC(n4nc(C)cc4C)C3)cn2c1 | -9.46 |
| O=S(=O)(C1CC1)N1CC[C@]2(C[C@@H](OCC3CCOCC3)CO2)C1 | -9.4 |
| COc1nc2c(cc1C(=O)N(C)Cc1noc3c1CCCC3)CCC2 | -0.83 |
| COc1ccc(OCc2nc(C(=O)N3C[C@H](O)[C@@H](N(C)C)C3)co2)cc1 | -4.57 |
| CC(C)(C)OC(=O)N1CCC(C(=O)NCCNc2ncccn2)CC1 | -7.43 |
| CN(Cc1ccc(F)cc1)Cc1nc(-c2cnccn2)no1 | -7.07 |
| CN(CC(=O)NCC(F)(F)F)C(=O)c1ccc(=O)[nH]c1 | -8.21 |

| Structure (SMILES) | cytotoxicity at 70.5 h [%] |
| --- | --- |
| O=C(c1ccccn1)N1C[C@@H]2CC[C@H](C1)N(C(=O)CCC1CCCC1)C2 | -1.69 |
| CCc1nnc(SCc2nonc2C)n1C | -11.2 |
| Cc1nccn1-c1ccc(CNC(=O)c2ccc[nH]2)cn1 | -6.51 |
| CC(C)c1ccc(CCC(=O)N2CCOCC2c2ncon2)cc1 (stereo not drawn) | -5.22 |
| Cc1cccc2[nH]c(C3CCCN(Cc4ccc(CO)o4)C3)nc12 (stereo not drawn) | 4.96 |
| O=C(NCCC1CN(Cc2c[nH]cn2)CCO1)c1ccccc1O (stereo not drawn) | 23 |
| CN(CC(=O)NC(C)(C)C)Cc1nc(-c2ccccc2)c[nH]1 | 39 |
| COCC1CN(Cc2ccc(F)cc2)Cc2nnn(CC3CC3)c21 (stereo not drawn) | 0.526 |
| O=C(c1cncc(N2CCC3(CCCNC3)C2)n1)N1CCCC1 (stereo not drawn) | -5.37 |
| CCn1c(CC2CCN(S(=O)(=O)N3CCCCC3)CC2)nn(C)c1=O | -3.16 |
| CCC(C(=O)Nc1ccc2cn(CC)nc2c1)N1CCCC1=O (stereo not drawn) | -24.8 |
| Cc1ccoc1C(=O)N1CC[C@@H]2CN(C3CCOCC3)CCO[C@@H]2C1 | -0.955 |
| CC(NCC1CCN(CCO)CC1)c1ccc(OC(F)(F)F)cc1 (stereo not drawn) | -2.01 |
| O=C(C1CCC1)N1CCCC(c2ccnc(Nc3cnccn3)n2)C1 (stereo not drawn) | -7.38 |
| CC(NC(=O)NCCOc1ccc(Cl)cc1)c1nncn1C (stereo not drawn) | -12.4 |
| CC(C)OCCS(=O)(=O)N1CCCC1c1cccc(N(C)C)c1 (stereo not drawn) | -5.82 |
| O=C(c1ccc(-n2cnnc2)cc1Cl)N1CCCC(O)(CO)CC1 (stereo not drawn) | 15.6 |
| CCOCC1CC2(CCN(C(=O)C3CCSCC3)CC2)CO1 (stereo not drawn) | 8.92 |
| CS(=O)(=O)N1C[C@H]2CNC[C@@]2(C(=O)NCCCc2ccccc2)C1 | -3.07 |
| O=C(c1csc(-c2ccco2)n1)N1CCN2CCCCC2C1 (stereo not drawn) | -4.49 |
| CSc1cccc(CN(C)C(=O)c2cccc(C3CCCNC3)c2)c1 (stereo not drawn) | -2.36 |

From ChEMBL document CHEMBL3507680, “University of Dundee, Gates Library screen for HepG2 cell viability”
